Source: patent US20120184769A1, “METHOD FOR ISOLATING […]-N,N-DIACETONITRILE” (BASF SE, priority 2009, published 2012)

Assay: Solubility of MGDN in water or aqueous ammonium sulfate solution
Format: physicochemical

CC(C#N)N(CC#N)CC#N (stereo not drawn) [MGDN, methylglycinenitrile-N,N-diacetonitrile]
dissolved MGDN in the aqueous solution (emulsion formed) (above about 60° C., emulsion of MGDN and its aqueous solution): more than 5 % by weight | solubility of MGDN in water (at 10° C., in water or an aqueous ammonium sulfate solution): about 0.5 % by weight | solubility of MGDN in water (at around 60° C.): about 5 % by weight
